Assay results taken from patent publication US20240390434A1, “PROBIOTIC ENHANCERS AND USES THEREOF” (Blis Technologies Limited, priority 2021, published 2024).

Columns and labels:
Type in all cases: cell-based
[1] = test system: S. pyogenes 71-698; experiment: Deferred antagonism assay, producer S. salivarius M18
Method: 1-2 producer strain colonies were transferred from a stock plate into 900 μL of suspension solution using a fresh cotton swab. Following this, suspensions were vortexed, and a sample was inoculated onto solid culture media using a fresh cotton swab. The inoculation was a streak that runs diametrically across the agar plate in a 1.5 cm wide strip. The plate was then incubated. Following incubation all visible colonies were removed by swabbing them from the agar surface. The plates were then treated with chloroform by dispensing 2 ml of chloroform onto 4 cm×4 cm piece of cloth and sealing the inverted agar plate on top for 30 minutes. The plates were then air dried for 30 minutes following chloroforming. 1-2 indicator strain colonies were then transferred from a stock plate into complementary suspension solution. The suspensions were then vortexed, and a sample was inoculated onto the same agar surface. These samples were streaked in a perpendicular direction to the initial producer streak.
Each indicator streak was prepared with fresh a suspension containing cells from a corresponding stock plate containing the indicator strain of interest. Indicator strains suspension samples were transferred using a fresh cotton swab. Results were measured by qualitatively reviewing the subsequent (if any) sizes of the zones of inhibition (ZOI) of indicator strain colony growth. A positive result is when there is a distinctive reduction or complete inhibition of indicator colony growth on the culture medium.
(§1) CABCa agar plates containing various concentrations of saccharide were prepared according to the methods described in Method 1. Producer strains were transferred from stock agar plates into 900 μL THB using a fresh cotton swab. A plastic spread plater was cut to approximately 1.2 cm width and then dipped into ethanol and left to air dry to ensure sterility. A 100 μL sample of the producer strain suspension was then dispensed onto the agar surface in a straight line running diametrically across the agar surface in (approximately) 20 μL spots. The spots were spaced approximately 1.5 cm apart from each other. The plastic spreader was then used to evenly distribute the spots across the agar surface in a 1.5 cm wide strip. This step was taken to ensure an even producer streak was inoculated onto the agar surface and provided an approximate measure of the initial inoculum concentration. Separate plastic spreaders were used for samples containing different producer strains. The samples were left to soak into the agar surface until there was no visible liquid remaining on the agar surface (approximately 20 minutes). Following producer streak preparations, the deferred antagonism assay protocol was followed as per Method 2. Results were recorded by measuring the size of the zone of inhibition (ZOI) in mm.
A dose response assay was carried out according to method 3 above, except a 1.2 cm streak was used. For the individual saccharide testing the pH of the producer streak was adjusted after the growth of producer to change the acidic conditions.
A deferred antagonism assay was conducted using K12 or M18 raw ingredient suspended in Todd Hewitt broth (THB). This was spread as a 1.2 cm streak containing approximately 1-2×10^6 cfu down the middle of a CABCa control or CABCa galactose supplemented test plate. After 18 hrs growth at 37° C. with 5% CO2, bacterial growth was removed, and the pH of the agar in the initial streak was measured and adjusted to a pH of 6.5-7.5 using 0.5M sodium carbonate pH11 before sterilizing the agar surface using chloroform vapor. Bacterial test strains were suspended in i-THB before being swabbed across the plates perpendicular to the initial streak. Plates were incubated for a further 18 hrs incubation at 37° C. with 5% CO2 before measuring (mm) any zones of inhibition for each test strain, […]

[2] = test system: bacterial indicator strains; experiment: Split plate inhibitory activity of K12 in infant formula or whole milk powder (overall); conditions: galactose 0.5% w/w or raffinose 2.5% w/w added
Method: The following method was used to measure the inhibitory effect of S. salivarius K12 in the context of the powder formulations. Exactly 40 mL of 50° C. molten CAB agar containing 0.5% calcium carbonate (CABCa) was poured in agar plates (120×120 mm). Once the agar was set upon cooling, it was split in the middle and half of the agar gel was removed. The other half was left on the plate as Blank agar marked as side “A”. Approximately, 0.8 g of each combination (DDJ powder with (1) galactose, (2) raffinose or (3) combination of raffinose and galactose) was mixed with 1 mL of sterile distilled water and vortexed to produce a homogeneous suspension. 100 μl of the suspension was reserved for spreading on the surface of agar (producer side B). The remaining suspension was then mixed with 20 mL of molten CABCa agar and the mixture was poured into the empty half of the agar plate to form producer side “B”. The 100 μL of the reserved suspension was spread over the surface on side B and the plates were incubated for 18 h, 37° C., 5% CO2 in air. […] The pH of the producer side was measured and adjusted to 6.5-7.5 by soaking into the agar a solution of 0.5 M sodium carbonate pH 11. […] The zone of inhibition of each indicator strain was measured (in mm) using a ruler. Results were also read using a macroscope to establish presence of small colonies or complete inhibition zones. […]

[3] = test system: representative microorganisms from skin, dental, oral, ENTR diseases; experiment: Dose response assay with dairy free K12 or M18; conditions: 2.5% w/w raffinose vs equal weight percentage of saccharides; pH adjusted
Method: as §1, with “mm. […]” for “mm.”

[4] = test system: microorganisms associated with skin, dental, ENTR; experiment: Dose response assay, raffinose vs equimolar trimix and individual saccharides, K12; conditions: equimolar concentration
Method: as §1, with “mm. […]” for “mm.”

| Compound | zone of inhibition at 0.5 % strength ([1]; Streptococcus pyogenes, 71698, M18, Galactose 0.5% w/w, read-out: Size of zone inhibition normalised to control, S. pyogenes 71-698) [mm] | zone of inhibition at 1.25 % strength ([1]; Streptococcus pyogenes, 71698, M18, Galactose 1.25% w/w, read-out: Size of zone inhibition normalised to control, S. pyogenes 71-698) [mm] | zone of inhibition at 1.7 % strength ([1]; Streptococcus pyogenes, 71698, M18, Galactose 1.7% w/w, read-out: Size of zone inhibition normalised to control, S. pyogenes 71-698) [mm] | zone of inhibition at 2.5 % strength ([1]; Streptococcus pyogenes, 71698, M18, Galactose 2.5% w/w, read-out: Size of zone inhibition normalised to control, S. pyogenes 71-698) [mm] | zone of inhibition at 3.3 % strength ([1]; Streptococcus pyogenes, 71698, M18, Galactose 3.3% w/w, read-out: Size of zone inhibition normalised to control, S. pyogenes 71-698) [mm] | zone of inhibition at 5 % strength ([1]; Streptococcus pyogenes, 71698, M18, Galactose 5% w/w, read-out: Size of zone inhibition normalised to control, S. pyogenes 71-698) [mm] | inhibitory activity of K12 in infant formula compared to the control [2] | inhibitory action of dairy free K12 or M18 [3] | inhibition by M18 of S. pyogenes ([1]; 0.5 to 10% w/v raffinose) | Zone of inhibition S. pyogenes 71-698 ([1]; M18, Raffinose 1.7% wt, pH adjusted) [mm] | Zone of inhibition S. pyogenes 71-698 ([1]; M18, Raffinose 2.5% wt) [mm] | Zone of inhibition S. pyogenes 71-698 ([1]; M18, Raffinose 2.5% wt, pH adjusted) [mm] | Zone of inhibition S. pyogenes 71-698 ([1]; M18, Raffinose 3.3% wt) [mm] | Zone of inhibition S. pyogenes 71-698 ([1]; M18, Raffinose 3.3% wt, pH adjusted) [mm] | Zone of inhibition S. pyogenes 71-698 ([1]; M18, Raffinose 5% wt) [mm] | Zone of inhibition S. pyogenes 71-698 ([1]; M18, Raffinose 5% wt, pH adjusted) [mm] | Zone of inhibition S. pyogenes 71-698 ([1]; M18, Raffinose 10% wt) [mm] | Zone of inhibition S. pyogenes 71-698 ([1]; M18, Raffinose 10% wt, pH adjusted) [mm] | inhibitory activity of K12 compared to equivalent composition of the three monomeric saccharides [4] |
| --- | --- | --- | --- | --- | --- | --- | --- | --- | --- | --- | --- | --- | --- | --- | --- | --- | --- | --- | --- |
| O=C[C@H](O)[C@@H](O)[C@@H](O)[C@H](O)CO [Galactose, D-galactose] | 19.5 | 13.5 | 9.5 | 16.5 | 9.5 | 9.5 | reduction in inhibitory activity | enhanced inhibitory activity |  |  |  |  |  |  |  |  |  |  |  |
| OC[C@H]1O[C@H](OC[C@H]2O[C@H](O[C@]3(CO)O[C@H](CO)[C@@H](O)[C@@H]3O)[C@H](O)[C@@H](O)[C@@H]2O)[C@H](O)[C@@H](O)[C@H]1O [Raffinose, D-(+) Raffinose pentahydrate] |  |  |  |  |  |  | reduction in inhibitory activity | enhanced inhibitory action | increase in inhibition | 10 | 8 | 7 | 8 | 7 | 5 | 5 | 0 | 0 | better inhibitory activity |
